Results reported in ChEMBL document CHEMBL6177999, “Discovery of 3-(Fluoro-imidazolyl)pyridazine Derivatives as Potent STING Agonists with Antitumor Activity” (J Med Chem, 2025).
pEC50, pIC50: −log10 of the molar value.

Legend:
[1] = molecular target: T1, Stimulator of interferon genes protein (Homo sapiens, UniProt Q86WV6); assay: Displacement of 5-FAM-labeled diABZI tracer from N-terminal 6xHis-tagged wild-type human STING CTD extracted from Escherichia coli BL21(DE3) incubated for 30 mins by competitive binding based fluorescence polarization assay
[2] = molecular target: Stimulator of interferon genes protein (Homo sapiens, UniProt Q86WV6, G230A/R293Q)
[3] = molecular target: T1, Stimulator of interferon genes protein; assay: Displacement of 5-FAM-labeled diABZI tracer from N-terminal 6xHis-tagged human STING R232H mutant CTD extracted from Escherichia coli BL21(DE3) incubated for 30 mins by competitive binding based fluorescence polarization assay
[4] = molecular target: T2, Stimulator of interferon genes protein (Mus musculus, UniProt Q3TBT3); assay: Agonist activity at STING in mouse RAW-Lucia ISG-KO-STING cells harbouring SEAP reporter gene assessed as activation of cGAS-STING signaling pathway incubated for 24 hrs by QUANTI-Blue reagent based analysis
T2 sequence (Q3TBT3 whole entry): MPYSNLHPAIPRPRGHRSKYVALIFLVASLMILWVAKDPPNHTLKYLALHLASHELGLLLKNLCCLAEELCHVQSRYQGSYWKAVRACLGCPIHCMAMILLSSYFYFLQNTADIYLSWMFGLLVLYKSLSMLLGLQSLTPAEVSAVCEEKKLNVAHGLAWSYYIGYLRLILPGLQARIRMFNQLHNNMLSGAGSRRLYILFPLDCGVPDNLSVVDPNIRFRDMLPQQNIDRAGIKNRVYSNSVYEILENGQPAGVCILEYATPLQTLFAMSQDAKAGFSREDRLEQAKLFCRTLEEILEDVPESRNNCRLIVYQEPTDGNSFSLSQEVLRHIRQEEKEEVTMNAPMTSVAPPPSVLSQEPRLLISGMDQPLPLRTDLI

[5] = molecular target: Stimulator of interferon genes protein (Homo sapiens, UniProt Q86WV6, R293Q)
[6] = molecular target: T2, Stimulator of interferon genes protein; assay: Displacement of 5-FAM-labeled diABZI tracer from N-terminal 6xHis-tagged wild-type mouse STING CTD extracted from Escherichia coli BL21(DE3) incubated for 30 mins by competitive binding based fluorescence polarization assay
[7] = molecular target: T2, Stimulator of interferon genes protein; assay: Agonist activity at STING in mouse RAW-Lucia ISG cells harbouring SEAP reporter gene assessed as activation of cGAS-STING signaling pathway incubated for 24 hrs by QUANTI-Blue reagent based analysis
B16-F10 = assay: Antitumor activity against mouse B16-F10 cells allografted in female C57BL/6 mouse assessed as tumor growth inhibition at 30 mg/kg, iv qd relative to control; details: B16-F10, read-out: TGI
[8] = Clearance in female C57BL/6 mouse at 10 mg/kg, iv measured up to 24 hrs by LC-MS/MS analysis; details: in vivo

T1 sequence (Q86WV6 whole entry): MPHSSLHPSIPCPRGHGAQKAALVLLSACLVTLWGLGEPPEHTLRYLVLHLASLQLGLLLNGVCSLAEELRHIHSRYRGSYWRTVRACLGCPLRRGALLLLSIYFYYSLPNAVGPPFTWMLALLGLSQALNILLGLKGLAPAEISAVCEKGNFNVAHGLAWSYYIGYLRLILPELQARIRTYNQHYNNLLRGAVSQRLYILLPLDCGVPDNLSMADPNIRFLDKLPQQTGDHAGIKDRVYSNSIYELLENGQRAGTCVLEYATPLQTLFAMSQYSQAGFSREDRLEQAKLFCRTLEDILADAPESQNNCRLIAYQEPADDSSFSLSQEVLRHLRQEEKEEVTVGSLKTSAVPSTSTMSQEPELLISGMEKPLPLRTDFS
Stimulator of interferon genes protein (Homo sapiens, UniProt Q86WV6, G230A/R293Q), sequence (Q86WV6 whole entry G230A/R293Q): as the sequence (Q86WV6 whole entry) above, with G230A, R293Q counted along it
Stimulator of interferon genes protein (Homo sapiens, UniProt Q86WV6, R293Q), sequence (Q86WV6 whole entry R293Q): as the sequence (Q86WV6 whole entry) above, with R293Q counted along it

pIC50 [1] | pIC50 [2] | pIC50 [3] | pEC50 [4] | pIC50 [5] | pIC50 [6] | pEC50 [7] | clearance at 24 h [8] | Structure (SMILES) | inhibition in vivo at 30 mg/kg (B16-F10)
5.83 | 6.01 | 5.87 | < 4.00 | 5.84 | 5.58 | 4.61 |  | O=C(Nc1cc(Br)c(F)cc1C(=O)O)c1ccc(-n2cnc(F)c2)nn1 | 
 |  |  | < 4.00 |  | 5.73 | < 4.00 | 123 mL/min/kg | O=C(Nc1cc(F)c(F)cc1C(=O)O)c1ccc(-n2ccnc2)nn1 | 52.4%
5.74 | 6.03 | 5.76 | < 4.00 | 5.72 | 5.60 | 4.33 |  | O=C(Nc1cc(Cl)c(F)cc1C(=O)O)c1ccc(-n2cnc(F)c2)nn1 | 
